Patent publication US4351948A, “Imidazole hydrazone derivatives” (priority 1980, dated 1982)
Converted amounts (≈) assume the structure as drawn. Structures can show the parent of a compound that is named as a salt. Where two headings read alike, the source gives them in different places.

What was measured:
[1] = system: C. perfringens (ATCC 13124); test: microbe, parasite or virus in culture; assay type: cell-based; details: Clostridium perfringens, ATCC13124, 24 h
candida albicans = test: Oral treatment: recovery of viable candida albicans from the kidneys of infected mice; assay type: in vivo
Description: Effect of oral treatment with HC274, HC316, HC390, HC415 and Ketoconazole on the recovery of viable candida albicans from the kidneys of infected mice.

B. fragilis ATCC 23745 = test: Antianaerobic activity, MIC by standard broth dilution method (Table II); assay type: cell-based; details: Bacteroides fragilis, ATCC23745, 24 h, read-out: Minimal Inhibitory Concentration (MIC)
Protocol: (§1) The activity of the compounds identified in the Table II below was tested for antianaerobic activity against one strain of Bacteroides fragilis, one strain of Bacteroides uniformis, one strain of Clostridium sporogenes and one strain of Trichomonas vaginalis as the test organism. The methods used involved determining the minimum inhibitory concentration by the standard broth dilution method. […] For convenience the compounds are referred to by an internal reference number (an HC number) and this is correlated with the number of the Example wherein its production is described.

B. uniformis ATCC 8492 = test: as above; assay type: cell-based; details: Bacteroides uniformis, ATCC8492, 24 h, read-out: Minimal Inhibitory Concentration (MIC)
Protocol: as §1

T. vaginalis ATCC 30001 = test: as above; assay type: cell-based; details: Trichomonas vaginalis, ATCC30001, 24 h, read-out: Minimal Inhibitory Concentration (MIC)
Protocol: as §1

C. sporogenes ATCC 19404 = test: as above; assay type: cell-based; details: Clostridium sporogenes, ATCC19404, 24 h, read-out: Minimal Inhibitory Concentration (MIC)
Protocol: The activity of the compounds identified in the Table II below was tested for antianaerobic activity against one strain of Bacteroides fragilis, one strain of Bacteroides uniformis, one strain of Clostridium sporogenes and one strain of Trichomonas vaginalis as the test organism. The methods used involved determining the minimum inhibitory concentration by the standard broth dilution method. The values for metronidazole (2-methyl-5-nitro-1H-imidazole-1-ethanol) are given above for reference purposes. For convenience the compounds are referred to by an internal reference number (an HC number) and this is correlated with the number of the Example wherein its production is described.

in vivo = details: male mice, 7 day
[2] = system: Desulfovibrio desulfuricans API-CORE; test: Minimal inhibitory concentration against anaerobic bacteria; details: 24 h
[3] = system: Bacteroides fragilis ATCC 23745; test: as above; details: ATCC23745, 24 h
[4] = system: Bacteroides uniformis ATCC 8492; test: as above; details: ATCC8492, 24 h
[5] = system: Clostridium sporogenes ATCC 19404; test: as above; assay type: cell-based; details: ATCC19404, 24 h
[6] = system: Desulfovibrio desulfuricans API-SW2; test: as above; details: for Minimal Inhibitory Concentration: 24 hours at 37° C.
[7] = system: Desulfovibrio desulfuricans API-BREWER; test: as above; details: 24 h
[8] = read-out: Minimal Inhibitory Concentration, Test 1, 24 hours at 37° C.
[9] = read-out: Minimal Inhibitory Concentration, Test 2, 24 hours at 37° C.
[10] = read-out: Minimal Inhibitory Concentration, Test 3, 24 hours at 37° C.

| Compound | MIC [1] | Recovery of C.albicans (as percentage of control) (candida albicans; 5 mg/kg) | Recovery of C.albicans (as percentage of control) (candida albicans; 20 mg/kg) | MIC (B. fragilis ATCC 23745; Test 1) | MIC (B. fragilis ATCC 23745; Test 2) | MIC (B. fragilis ATCC 23745; Test 3) | MIC (B. uniformis ATCC 8492; Test 1) | MIC (B. uniformis ATCC 8492; Test 2) | MIC (B. uniformis ATCC 8492; Test 3) | MIC (T. vaginalis ATCC 30001; Test 1) | MIC (T. vaginalis ATCC 30001; Test 2) | MIC (T. vaginalis ATCC 30001; Test 3) | MIC (C. sporogenes ATCC 19404; Test 1) | MIC (C. sporogenes ATCC 19404; Test 2) | MIC (C. sporogenes ATCC 19404; Test 3) | further results |
| --- | --- | --- | --- | --- | --- | --- | --- | --- | --- | --- | --- | --- | --- | --- | --- | --- |
| Cl.Clc1ccc(NN=C(Cn2ccnc2)c2ccccc2Cl)c(Cl)c1 [HC316, 1-(2-Chlorophenyl)-2-(1H-imidazol-1-yl)ethanone, 2,4-dichlorophenylhydrazone, hydrochloride] | 0.8 µg/mL | 56.2 percentage of control | 46.5 percentage of control | 2.5 µg/mL | 2.5 µg/mL | 2.5 µg/mL | 2.5 µg/mL | 2.5 µg/mL | 2.5 µg/mL | 50 µg/mL | 50 µg/mL | 50 µg/mL | 1 µg/mL | 2.5 µg/mL | 2.5 µg/mL | – |
| Clc1ccc(/C(Cn2ccnc2)=N/Nc2c(Cl)cccc2Cl)s1 [HC390, (E)-1-(5-chlorothienyl-2-yl)-2-(1H-imidazol-1-yl)ethanone, 2,6-dichlorophenylhydrazone, hydrochloride] | 3.1 µg/mL | 57.3 percentage of control | 41.1 percentage of control | 5 µg/mL | 2.5 µg/mL | 2.5 µg/mL | 2.5 µg/mL | 2.5 µg/mL | 2.5 µg/mL | > 50 µg/mL | > 50 µg/mL | > 50 µg/mL | 2.5 µg/mL | 5 µg/mL | 7.5 µg/mL | LD50 at 168 h (in vivo; mouse, in vivo, ip, read-out: LD50): 610 mg/kg; LD12.5 (in vivo; p.o.): > 1500 mg/kg |
| Cc1ncc([N+](=O)[O-])n1CCO [Metronidazole, 2-methyl-5-nitro-1H-imidazole-1-ethanol, reference compound] | 0.3 µg/mL (≈ 1.75 µM) | – | – | – | – | – | – | – | – | – | – | – | – | – | – | MIC [2, 8]: 0.5 µg/mL (≈ 2.92 µM); MIC [2, 9]: 0.25 µg/mL (≈ 1.46 µM); MIC [2, 10]: 0.25 µg/mL (≈ 1.46 µM); MIC [3, 8]: 0.75 µg/mL (≈ 4.38 µM); MIC [3, 9]: 0.75 µg/mL (≈ 4.38 µM); MIC [3, 10]: 0.5 µg/mL (≈ 2.92 µM); MIC [4, 8]: 0.5 µg/mL (≈ 2.92 µM); MIC [4, 9]: 0.25 µg/mL (≈ 1.46 µM); MIC [4, 10]: 0.25 µg/mL (≈ 1.46 µM); MIC ([5]; Test 1, 24 hours at 37° C.): 0.5 µg/mL (≈ 2.92 µM); MIC ([5]; Test 2, 24 hours at 37° C.): 0.25 µg/mL (≈ 1.46 µM); MIC ([5]; Test 3, 24 hours at 37° C.): 0.75 µg/mL (≈ 4.38 µM); MIC ([6]; Desulfovibrio desulfuricans, APISW2, 24 h, read-out: Minimal Inhibitory Concentration): 0.25 µg/mL (≈ 1.46 µM); Minimal Inhibitory Concentration ([6]; Test 2): 0.25 mg/L; Minimal Inhibitory Concentration ([6]; Test 3): 0.25 mg/L; MIC [7, 8]: 0.5 µg/mL (≈ 2.92 µM); MIC [7, 9]: 0.5 µg/mL (≈ 2.92 µM); MIC [7, 10]: 0.5 µg/mL (≈ 2.92 µM) |
